In assay [1] the test system is MOLT-4 cancer cell line. In words: Cell proliferation assay, MOLT-4 cancer cell line (ATPlite).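 Further: luminescence read-out, percent growth versus compound-free DMSO wells as maximum growth, start-of-incubation signal separating growth from cell death, IC50 from logistic curve fit.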 It is filed as cell-based. The following applies: Homo sapiens. (In ATP-based viability assays light output follows the ATP content of the culture.)
Description: 5 μL of compound solution was added and the plates were incubated for an additional 72 hours after which 25 μL of ATPlite 1Step™ (PerkinElmer, Groningen, The Netherlands) solution was added to each well. Luminescence was recorded on an Envision multimode reader. The cell signal at the start of incubation was recorded separately in order to distinguish between cell population growth and cell death. In addition, maximum growth was determined by incubation of a duplicate without compound in the presence of 0.4% DMSO. Percentage growth was used as the main y-axis signal. IC50s were fitted by non-linear regression using IDBS XLfit™5 using a 4-parameter logistic curve, yielding a maximum signal, minimum signal, hill-parameter and IC50.
Assay [2] addresses T1, Aurora C (Homo sapiens, UniProt Q9UQB9).
T1 construct: full-length Aurora C enzyme (Carna Biosciences, cat. no. 05-103); purchased Carna Biosciences 05-103
T1 sequence (Q9UQB9 1-309): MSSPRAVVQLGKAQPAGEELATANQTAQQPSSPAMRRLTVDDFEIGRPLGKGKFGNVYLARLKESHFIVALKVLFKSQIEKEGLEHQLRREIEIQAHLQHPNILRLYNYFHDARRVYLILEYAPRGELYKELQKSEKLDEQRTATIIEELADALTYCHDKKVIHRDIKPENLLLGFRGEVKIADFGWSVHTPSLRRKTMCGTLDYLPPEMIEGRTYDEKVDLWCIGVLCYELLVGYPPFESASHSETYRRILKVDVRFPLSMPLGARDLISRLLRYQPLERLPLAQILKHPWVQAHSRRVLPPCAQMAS
Description: Biochemical Aurora C kinase assay (LANCE Ultra TR-FRET). The following applies: for AurC Selectivity: IC50 AurC/IC50 TTK (biochemical assays); for IC50: full-length Aurora C, 5 μM ATP.
Description: To determine the inhibitory activity of the compounds on Aurora C, the LANCE® Ultra TR-FRET assay (Perkin Elmer) was used. […] After pre-incubation of 1 hour in the dark at room temperature, ULightTM-labeled PLK([MUT]) substrate peptide (Perkin Elmer, cat. no. TRF-0110) and ATP were added, to start the reaction. […] After 3 hours, the reaction was stopped by the addition of 5 μl 100 mM EDTA. […] Time-resolved fluorescence was measured on an Envision multilabel reader (Perkin Elmer, Waltham, Mass., USA). IC50 were calculated using XLfitTM5 software (ID Business Solutions, Ltd., Surrey, U.K.).

The target in assay [3] is Polo-like kinase 1 (PLK1) (Homo sapiens, UniProt P53350). Description: Biochemical Polo-like kinase 1 kinase assay (LANCE Ultra TR-FRET). The note with it: for PLK1 Selectivity: IC50 PLK1/IC50 TTK (biochemical assays). For orientation: Time-resolved FRET reads energy transfer from a long-lived donor to a nearby acceptor.
Sequence of Polo-like kinase 1 (PLK1) (P53350 whole entry): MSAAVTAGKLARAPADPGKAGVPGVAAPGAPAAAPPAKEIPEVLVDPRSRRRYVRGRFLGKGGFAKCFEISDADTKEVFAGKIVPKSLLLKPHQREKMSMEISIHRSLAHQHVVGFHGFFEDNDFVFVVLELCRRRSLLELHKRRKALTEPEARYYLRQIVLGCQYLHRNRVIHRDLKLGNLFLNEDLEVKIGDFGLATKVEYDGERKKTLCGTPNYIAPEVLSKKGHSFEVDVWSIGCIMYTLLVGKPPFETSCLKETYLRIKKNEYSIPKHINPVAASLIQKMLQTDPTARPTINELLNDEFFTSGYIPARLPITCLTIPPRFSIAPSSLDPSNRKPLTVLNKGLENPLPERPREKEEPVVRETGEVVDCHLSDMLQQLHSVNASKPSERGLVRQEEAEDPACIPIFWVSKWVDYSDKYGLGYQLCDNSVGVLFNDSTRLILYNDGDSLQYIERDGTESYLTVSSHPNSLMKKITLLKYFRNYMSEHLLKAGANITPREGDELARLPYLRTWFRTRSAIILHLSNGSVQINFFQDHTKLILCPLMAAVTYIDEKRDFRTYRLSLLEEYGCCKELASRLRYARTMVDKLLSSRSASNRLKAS
Description: To determine the inhibitory activity of the compounds on Polo-like kinase 1 (PLK1), the LANCE® Ultra TR-FRET assay (Perkin Elmer) was used. […] After 4 hours, the reaction was stopped by the addition of 5 μl 100 mM EDTA. […] Time-resolved fluorescence was measured on an Envision multilabel reader (Perkin Elmer, Waltham, Mass. USA). IC50 were calculated using XLfit™5 software (ID Business Solutions, Ltd., Surrey, U.K.).
Assay [4] has as its target T2, Aurora A (Homo sapiens, UniProt O14965).
T2 construct: full-length Aurora A enzyme (Carna Biosciences, cat. no. 05-101); purchased Carna Biosciences 05-101
T2 sequence (O14965 1-403): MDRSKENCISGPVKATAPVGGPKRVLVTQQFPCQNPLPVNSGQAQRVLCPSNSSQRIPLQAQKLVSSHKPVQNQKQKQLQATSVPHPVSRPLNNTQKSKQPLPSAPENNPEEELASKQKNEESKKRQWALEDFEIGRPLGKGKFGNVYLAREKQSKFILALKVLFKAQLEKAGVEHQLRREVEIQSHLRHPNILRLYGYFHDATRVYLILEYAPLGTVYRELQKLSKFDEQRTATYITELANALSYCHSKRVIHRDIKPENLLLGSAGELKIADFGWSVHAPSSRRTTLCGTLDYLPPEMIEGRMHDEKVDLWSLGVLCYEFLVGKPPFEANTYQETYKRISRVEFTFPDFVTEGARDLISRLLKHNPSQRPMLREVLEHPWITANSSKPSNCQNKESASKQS
Description: Biochemical Aurora A kinase assay (LANCE Ultra TR-FRET). The following applies: for AurA Selectivity: IC50 AurA/IC50 TTK (biochemical assays); for IC50: full-length Aurora A, 2 μM ATP.
Description: To determine the inhibitory activity of the compounds on Aurora A, the LANCE® Ultra TR-FRET assay (Perkin Elmer) was used. […] After 2 hours, the reaction was stopped by the addition of 5 μl 100 mM EDTA. […] Time-resolved fluorescence was measured on an Envision multilabel reader (Perkin Elmer, Waltham, Mass., USA). IC50 were calculated using XLfit™5 software (ID Business Solutions, Ltd., Surrey, U.K.).

Setting [5] is: MOLT-4, 72 hours incubation, ATPlite 1Step, read-out: IC50 MOLT-4 cell proliferation.

Like-named read-outs stand apart in the source and are kept apart here.

On to `CCc1nn(CCOCCOC)c(CC)c1NC(=O)c1ccn2c1CCc1cnc(Nc3ccc(N4CCN(C)CC4)cc3OC)nc1-2` [Example 141, N-[3,5-diethyl-1-[2-(2-methoxyethoxy)ethyl]pyrazol-4-yl]-2-[2-methoxy-4-(4-methylpiperazin-1-yl)anilino]-5,6-dihydropyrimido[4,5-e]indolizine-7-carboxamide], for which the IC50 was less than 50 nM in assay [1] (setting [5]), no less than 100 nM in assay [2], no less than 250 nM in assay [3] and no less than 100 nM in assay [4]. Besides, the “AurC Selectivity” value in assay [2] is given as greater than 500. The “PLK1 Selectivity” value in assay [3] is given as greater than 500. Besides, in assay [4], the “AurA Selectivity” value is greater than 200.

As for `CCOCCOCCn1nc(C)c(NC(=O)c2ccn3c2CCc2cnc(Nc4ccc(N5CCN(C)CC5)cc4OC)nc2-3)c1C` [Example 148, N-[1-[2-(2-ethoxyethoxy)ethyl]-3,5-dimethyl-pyrazol-4-yl]-2-[2-methoxy-4-(4-methylpiperazin-1-yl)anilino]-5,6-dihydropyrimido[4,5-e]indolizine-7-carboxamide], the IC50 in assay [1] (MOLT-4, read-out: IC50 in the TTK cellular assay) was less than 50 nM; in assay [2] it was no less than 100 nM; in assay [3], no less than 250 nM; in assay [4], no less than 100 nM.

In the case of `CCc1nn(CCOCCOC)c(CC)c1NC(=O)c1ccn2c1CCc1cnc(Nc3ccc(N4CCN(C(=O)COC)CC4)cc3OC)nc1-2` [Example 159, N-[3,5-diethyl-1-[2-(2-methoxyethoxy)ethyl]pyrazol-4-yl]-2-[2-methoxy-4-[4-(2-methoxyacetyl)piperazin-1-yl]anilino]-5,6-dihydropyrimido[4,5-e]indolizine-7-carboxamide], the IC50 in assay [1] (MOLT-4, worded 'TTK cellular assay', read-out: IC50 in the TTK cellular assay) is less than 50 nM. Besides, in assay [2], the “AurC Selectivity” value was greater than 200 and the IC50 was no less than 100 nM. Moreover, in assay [3], the IC50 is no less than 250 nM and the “PLK1 Selectivity” value is given as greater than 500. For the same molecule, in assay [4], the “AurA Selectivity” value is recorded as greater than 200 and the IC50 was no less than 100 nM.

With `Cc1cc(N2CCNCC2)ccc1Nc1ncc2c(n1)-n1ccc(C(=O)Nc3c(C)cccc3Br)c1CC2` [Example 81, N-(2-bromo-6-methyl-phenyl)-2-(2-methyl-4-piperazin-1-yl-anilino)-5,6-dihydropyrimido[4,5-e]indolizine-7-carboxamide], in assay [1] (setting [5]), the IC50 is less than 50 nM.

For `CCNC(=O)N1CCN(c2ccc(Nc3ncc4c(n3)-n3ccc(C(=O)Nc5c(C)cccc5C)c3CC4)c(OC)c2)CC1` [Example 114, N-(2,6-dimethylphenyl)-2-[4-[4-(ethylcarbamoyl)piperazin-1-yl]-2-methoxy-anilino]-5,6-dihydropyrimido[4,5-e]indolizine-7-carboxamide], in assay [1] (setting [5]), the IC50 is less than 50 nM.

As to `COc1cc(C(=O)N[C@@H]2CCNC[C@@H]2OC)ccc1Nc1ncc2c(n1)-n1ccc(C(=O)Nc3c(C)cccc3C)c1CC2` [Example 117, N-(2,6-dimethylphenyl)-2-[2-methoxy-4-[[(3S,4R)-3-methoxy-4-piperidyl]carbamoyl]anilino]-5,6-dihydropyrimido[4,5-e]indolizine-7-carboxamide], the IC50 in assay [1] (setting [5]) is less than 50 nM.

In the case of `CCc1cccc(CC)c1NC(=O)c1ccn2c1CCc1cnc(Nc3ccc(N4CCNC(C)C4)cc3OC)nc1-2` (centres unmarked) [Example 116, N-(2,6-diethylphenyl)-2-[2-methoxy-4-(3-methylpiperazin-1-yl)anilino]-5,6-dihydropyrimido[4,5-e]indolizine-7-carboxamide], in assay [1] (setting [5]), the IC50 was less than 50 nM.

For `COc1cc(OC2CCN(C)CC2)ccc1Nc1ncc2c(n1)-n1ccc(C(=O)Nc3c(C)cccc3C)c1CC2` [Example 39, N-(2,6-dimethylphenyl)-2-[2-methoxy-4-[(1-methyl-4-piperidyl)oxy]anilino]-5,6-dihydropyrimido[4,5-e]indolizine-7-carboxamide], in assay [1] (setting [5]), the IC50 was less than 50 nM.

For the molecule `CCc1nn(CCOC)c(CC)c1NC(=O)c1ccn2c1CCc1cnc(Nc3ccc(OC4CNC4)cc3OC)nc1-2` [Example 93, 2-[4-(Azetidin-3-yloxy)-2-methoxy-anilino]-N-[3,5-diethyl-1-(2-methoxyethyl)pyrazol-4-yl]-5,6-dihydropyrimido[4,5-e]indolizine-7-carboxamide], in assay [1] (setting [5]), the IC50 was less than 50 nM.

With `COc1cc(N2CCN(C)CC2)ccc1Nc1ncc2c(n1)-n1ccc(C(=O)Nc3c(C)cccc3CO)c1CC2` [Example 23, N-[2-(hydroxymethyl)-6-methyl-phenyl]-2-[2-methoxy-4-(4-methylpiperazin-1-yl)anilino]-5,6-dihydropyrimido[4,5-e]indolizine-7-carboxamide], the IC50 in assay [1] (setting [5]) was in the range of 50 to 150 nM.

With `COc1cc(C(=O)NC2CNC2)ccc1Nc1ncc2c(n1)-n1ccc(C(=O)Nc3c(C)cccc3C)c1CC2` [Example 104, 2-[4-(Azetidin-3-ylcarbamoyl)-2-methoxy-anilino]-N-(2,6-dimethylphenyl)-5,6-dihydropyrimido[4,5-e]indolizine-7-carboxamide], the IC50 in assay [1] (setting [5]) lay within 50 to 150 nM.

Consider `COCCn1nc(C)c(NC(=O)c2ccn3c2CCc2cnc(Nc4ccc(N5CCN(C(=O)C6CC(F)C6)CC5)cc4OC)nc2-3)c1C` (centres unmarked) [Example 132, 2-[4-[4-(3-Fluorocyclobutanecarbonyl)piperazin-1-yl]-2-methoxy-anilino]-N-[1-(2-methoxyethyl)-3,5-dimethyl-pyrazol-4-yl]-5,6-dihydropyrimido[4,5-e]indolizine-7-carboxamide], for which, in assay [1] (setting [5]), the IC50 is 50 to 150 nM.

Regarding `COc1cc(C(=O)NC(C)C)ccc1Nc1ncc2c(n1)-n1ccc(C(=O)Nc3c(C)cccc3C)c1CC2` [Example 120, N-(2,6-dimethylphenyl)-2-[4-(isopropylcarbamoyl)-2-methoxy-anilino]-5,6-dihydropyrimido[4,5-e]indolizine-7-carboxamide], the IC50 in assay [1] (setting [5]) was less than 50 nM.

Take `Cc1cc(OC2CCN(C)CC2)ccc1Nc1ncc2c(n1)-n1ccc(C(=O)Nc3c(C)cccc3Cl)c1CC2` [Example 46, N-(2-chloro-6-methyl-phenyl)-2-[2-methyl-4-[(1-methyl-4-piperidyl)oxy]anilino]-5,6-dihydropyrimido[4,5-e]indolizine-7-carboxamide]: in assay [1] (setting [5]), the IC50 was less than 50 nM.

For `COc1cc(N2CCN(C)CC2)ccc1Nc1ncc2c(n1)-n1ccc(C(=O)Nc3c(C)cc(C)cc3C)c1CC2` [Example 22, 2-[2-Methoxy-4-(4-methylpiperazin-1-yl)anilino]-N-(2,4,6-trimethylphenyl)-5,6-dihydropyrimido[4,5-e]indolizine-7-carboxamide], the IC50 in assay [1] (setting [5]) was less than 50 nM.

On to `COc1cc(N2CCN(C(=O)C3CC3)CC2)ccc1Nc1ncc2c(n1)-n1ccc(C(=O)Nc3c(C)cccc3C)c1CC2` [Example 112, 2-[4-[4-(Cyclopropanecarbonyl)piperazin-1-yl]-2-methoxy-anilino]-N-(2,6-dimethylphenyl)-5,6-dihydropyrimido[4,5-e]indolizine-7-carboxamide], for which the IC50 in assay [1] (setting [5]) is less than 50 nM.

With `CCc1n[nH]c(CC)c1NC(=O)c1ccn2c1CCc1cnc(Nc3ccc(OC4CNC4)cc3OC)nc1-2` [Example 92, 2-[4-(Azetidin-3-yloxy)-2-methoxy-anilino]-N-(3,5-diethyl-pyrazol-4-yl)-5,6-dihydropyrimido[4,5-e]indolizine-7-carboxamide], the IC50 in assay [1] (setting [5]) was 50 to 150 nM.
